The values that follow come from US10793535B2, “Heterocyclic glutaminase inhibitors” (Calithera Biosciences, Inc., priority 2012, dated 2020).

Molecules are shown by their SMILES.

The subject of one data set is Caco-2 cell monolayers. The experiment in a line: Caco-2 permeability assay. Format: in vitro ADME, human.
Settings: not given
The source says: Caco-2 cells are commonly used in a confluent monolayer on a cell culture insert filter. When cultured in this format and under specific conditions, the cells become differentiated and polarized such that their phenotype, morphologically and functionally resembles the enterocytes lining the small intestine. The cell monolayer provides a physical and biochemical barrier to the passage of small molecules, and is widely used across the pharmaceutical industry as an in vitro model of the human small intestinal mucosa to predict the absorption of orally administered drugs (Hidalgo et al., Gastroenterology, 1989; Artursson, J. Pharm. Sci., 1990). The correlation between the in vitro apparent permeability (P ? app) across Caco-2 monolayers and the in vivo absorption is well established (Artursson et al., Biochem. Biophys. Res. Comm., 1991).
The present assay was used to determine the bidirectional permeability of the compounds of the invention through Caco-2 cell monolayers. Caco-2 cells were grown in confluent monolayers where the media of both the apical (A) and basolateral (B) sides were at pH 7.4. Compounds were dosed at 1 μM in the presence of 200 μM Lucifer Yellow, on the apical side (A→B) or the basolateral side (B→A) for assessment, in duplicate.
The absorption potential of compounds were classified as either Low (P-app<1×10^−6 cm/s) or High (P-app>1×10^−6 cm/s).
In general terms: Caco-2 monolayers are a common model of the intestinal barrier.
`CC(C)(C)OC(=O)NCc1cccc(CC(=O)Nc2nnc(CCCCc3ccc(NC(=O)Cc4ccccc4)nn3)s2)c1` [Compound 339]: the “Significant Efflux” value is given as “Yes (efflux ratios being significant when greater than or equal to 3 when the Papp (B→A) was greater than or equal to 1×10^−6 cm/s)”.
The same measure, in the same setting: in the case of `O=C(Cc1ccccc1)Nc1ccc(CCCCc2nnc(NC(=O)Cc3ccccn3)s2)nn1` [Compound 354] it was “Yes (efflux ratios being significant when greater than or equal to 3 when the Papp (B→A) was greater than or equal to 1×10^−6 cm/s)”; in that of `CC(C(=O)Nc1ccc(CCCCc2nnc(NC(=O)Cc3cccc(CNC(=O)OC(C)(C)C)c3)s2)nn1)c1ccccc1` (centres unmarked) [Compound 436], “Yes (efflux ratios being significant when greater than or equal to 3 when the Papp (B→A) was greater than or equal to 1×10^−6 cm/s)”.
On the same count and under the same terms, in the case of `O=C(Cc1ccccc1Cl)Nc1ccc(CCCCc2nnc(NC(=O)Cc3ccccc3F)s2)nn1` [Compound 533] it was “Yes (efflux ratios being significant when greater than or equal to 3 when the Papp (B→A) was greater than or equal to 1×10^−6 cm/s)”.
Same read-out and setting: the result for `CC(C(=O)Nc1nnc(CCCCc2ccc(NC(=O)Cc3ccccc3)nn2)s1)c1ccccc1` (centres unmarked) [Compound 616] reads “Yes (efflux ratios being significant when greater than or equal to 3 when the Papp (B→A) was greater than or equal to 1×10^−6 cm/s)”.
As to `O=C(Cc1cccc(OC(F)(F)F)c1)Nc1ccc(CCCCc2nnc(NC(=O)Cc3cccc(OC(F)(F)F)c3)s2)nn1` [Compound 660], the “Significant Efflux” value is given as “Yes (efflux ratios being significant when greater than or equal to 3 when the Papp (B→A) was greater than or equal to 1×10^−6 cm/s)”.
The same measure, in the same setting: in the case of `O=C(Cc1cccc(OC(F)(F)F)c1)Nc1ccc(CCCCc2nnc(NC(=O)Cc3cccc(F)c3)s2)nn1` [Compound 679] it was “No”.
As for `O=C(Cc1cccc(OC(F)(F)F)c1)Nc1ccc(CCCCc2nnc(NC(=O)[C@@H](O)c3ccccc3)s2)nn1` [Compound 703], the “Significant Efflux” value was “Yes (efflux ratios being significant when greater than or equal to 3 when the Papp (B→A) was greater than or equal to 1×10^−6 cm/s)”.
As for `O=C(Cc1cccc(OC(F)(F)F)c1)Nc1ccc(CCCCc2nnc(NC(=O)[C@H](O)c3ccccc3)s2)nn1` [Compound 705], the “Significant Efflux” value was “Yes (efflux ratios being significant when greater than or equal to 3 when the Papp (B→A) was greater than or equal to 1×10^−6 cm/s)”.

Another data set concerns P493-6 (myc "on") cells. The experiment in a line: Cell proliferation assay. The format is cell-based. Particulars: P493-6, 72 h, read-out: Cell prolif P493 72 h IC50. Here is the method:
P493-6 (myc “on”) cells were maintained in growth media (RPMI-1640, 10% FBS, 2 mM glutamine, 100 units/ml Penicillin and 100 μg/ml streptomycin) at 37° C. with 5% CO2. For compound assay, P493-6 cells were plated in 96-well V-bottom plates on the day of compound addition in 50 μl of growth media at a cell density of 200,000 cells/ml (10,000 cells/well). Compounds were serially diluted in 100% DMSO at 200-times the final concentration. Compounds were diluted 100-fold into growth media and then 50 μl of this mixture was added to cell plates making the final concentration of DMSO 0.5%. Cells were incubated with compound for 72 hrs at 37° C. with 5% CO2 and analyzed for antiproliferative effects either by Cell Titer Glo (Promega) or FACS analysis using the Viacount (Millipore) kit on the Guava instrument.
What is called IC50 is the concentration that gives 50% inhibition. For `CC(C)(C)OC(=O)NCc1cccc(CC(=O)Nc2nnc(CCCCc3ccc(NC(=O)Cc4ccccc4)nn3)s2)c1` [Compound 339], the concentration for half-maximal inhibition (IC50) was 9 nM.
Same read-out and setting: in the case of `O=C(Cc1ccccc1)Nc1ccc(CCCCc2nnc(NC(=O)Cc3ccccn3)s2)nn1` [Compound 354] it was 47 nM.
On the same count and under the same terms, the result for `CC(C(=O)Nc1ccc(CCCCc2nnc(NC(=O)Cc3cccc(CNC(=O)OC(C)(C)C)c3)s2)nn1)c1ccccc1` (centres unmarked) [Compound 436] reads 10 nM; that for `O=C(Cc1ccccc1Cl)Nc1ccc(CCCCc2nnc(NC(=O)Cc3ccccc3F)s2)nn1` [Compound 533], 41 nM.
Still for that read-out and setting: in the case of `CC(C(=O)Nc1nnc(CCCCc2ccc(NC(=O)Cc3ccccc3)nn2)s1)c1ccccc1` (centres unmarked) [Compound 616] it was 130 nM; in that of `O=C(Cc1cccc(OC(F)(F)F)c1)Nc1ccc(CCCCc2nnc(NC(=O)Cc3cccc(OC(F)(F)F)c3)s2)nn1` [Compound 660], 37 nM.
On to `O=C(Cc1cccc(OC(F)(F)F)c1)Nc1ccc(CCCCc2nnc(NC(=O)Cc3cccc(F)c3)s2)nn1` [Compound 679], for which the half-inhibitory concentration (IC50) turned out to be 36 nM.
The same measure, in the same setting: the result for `Cc1cc(C)n(CC(=O)Nc2nnc(CCCCc3ccc(NC(=O)Cc4cccc(OC(F)(F)F)c4)nn3)s2)n1` [Compound 701] reads 110 nM; that for `O=C(Cc1cccc(OC(F)(F)F)c1)Nc1ccc(CCCCc2nnc(NC(=O)Cn3c(CN4CCOCC4)nc4ccccc43)s2)nn1` [Compound 702], 310 nM.
Same read-out and setting: the result for `O=C(Cc1cccc(OC(F)(F)F)c1)Nc1ccc(CCCCc2nnc(NC(=O)[C@@H](O)c3ccccc3)s2)nn1` [Compound 703] reads 12 nM; that for `O=C(Cc1cccc(OC(F)(F)F)c1)Nc1ccc(CCCCc2nnc(NC(=O)CN3C[C@@H](O)CC3=O)s2)nn1` [Compound 704], 880 nM; that for `O=C(Cc1cccc(OC(F)(F)F)c1)Nc1ccc(CCCCc2nnc(NC(=O)[C@H](O)c3ccccc3)s2)nn1` [Compound 705], 32 nM.
On the same count and under the same terms, the result for `Nc1ccc(CCCCc2nnc(NC(=O)Cc3ccccn3)s2)nn1` [Compound 706] reads 14000 nM.
Consider `O=C(Cc1cccc(OC(F)(F)F)c1)Nc1ccc(CCCCc2nnc(NC(=O)CN3CCCCC3=O)s2)nn1` [Compound 707], for which the IC50 is 85 nM.
On the same count and under the same terms, the result for `O=C(Cc1cccc(OC(F)(F)F)c1)Nc1ccc(CCCCc2nnc(NC(=O)CN3C(=O)CCC3=O)s2)nn1` [Compound 708] reads 2800 nM.
Same read-out and setting: in the case of `O=C(Cc1cccc(OC(F)(F)F)c1)Nc1ccc(CCCCc2nnc(NC(=O)CN3CCCC3=O)s2)nn1` [Compound 709] it was 140 nM.
As to `O=C(Cc1ccccn1)Nc1nnc(CCCCc2ccc(NC(=O)C(O)c3ccccc3)nn2)s1` (centres unmarked) [Compound 715], the IC50 was 390 nM.
Same read-out and setting: in the case of `O=C(Cc1cccc(OC(F)(F)F)c1)Nc1ccc(CCCCc2nnc(NC(=O)Cc3cccc[n+]3[O-])s2)nn1` [Compound 716] it was 180 nM; in that of `COc1ccc(OC(F)(F)F)cc1CC(=O)Nc1ccc(CCCCc2nnc(NC(=O)Cc3ccccn3)s2)nn1` [Compound 717], 190 nM.
Still for that read-out and setting: the result for `O=C(Cc1cc(OC(F)(F)F)ccc1O)Nc1ccc(CCCCc2nnc(NC(=O)Cc3ccccn3)s2)nn1` [Compound 718] reads 15 nM; that for `O=C(Cc1ccc(F)c(OC(F)(F)F)c1)Nc1ccc(CCCCc2nnc(NC(=O)Cc3ccccn3)s2)nn1` [Compound 719], 10 nM.
Still for that read-out and setting: in the case of `O=C(Cc1cc(OC(F)(F)F)ccc1F)Nc1ccc(CCCCc2nnc(NC(=O)Cc3ccccn3)s2)nn1` [Compound 720] it was 920 nM; in that of `O=C(Cc1ccc(Cl)c(OC(F)(F)F)c1)Nc1ccc(CCCCc2nnc(NC(=O)Cc3ccccn3)s2)nn1` [Compound 721], 22 nM; in that of `COc1ccc(CC(=O)Nc2ccc(CCCCc3nnc(NC(=O)Cc4ccccn4)s3)nn2)cc1OC(F)(F)F` [Compound 722], 16 nM.
Regarding `O=C(Cc1ccc(O)c(OC(F)(F)F)c1)Nc1ccc(CCCCc2nnc(NC(=O)Cc3ccccn3)s2)nn1` [Compound 723], the IC50 is 20 nM.
On the same count and under the same terms, the result for `CC(C)(C)OC(=O)Nc1cccc(CC(=O)Nc2nnc(CCCCc3ccc(NC(=O)Cc4cccc(OC(F)(F)F)c4)nn3)s2)n1` [Compound 724] reads 34 nM.
Take `Nc1cccc(CC(=O)Nc2nnc(CCCCc3ccc(NC(=O)Cc4cccc(OC(F)(F)F)c4)nn3)s2)n1` [Compound 725]: the IC50 was 150 nM.
As to `[2H]C([2H])(CCc1nnc(N)s1)C([2H])([2H])c1ccc(NC(=O)Cc2cccc(OC(F)(F)F)c2)nn1` [Compound 726], the IC50 stood at 610 nM.
The same measure, in the same setting: in the case of `Cc1cccc(CC(=O)Nc2nnc(CCCCc3ccc(NC(=O)Cc4cccc(OC(F)(F)F)c4)nn3)s2)n1` [Compound 728] it was 18 nM; in that of `COc1cc(CC(=O)Nc2ccc(CCCCc3nnc(NC(=O)Cc4ccccn4)s3)nn2)cc(OC(F)(F)F)c1` [Compound 729], 26 nM; in that of `O=C(Cc1cc(O)cc(OC(F)(F)F)c1)Nc1ccc(CCCCc2nnc(NC(=O)Cc3ccccn3)s2)nn1` [Compound 730], 25 nM.

The same data set, now with this note: read-out: Cell prolif P493 72 h IC50; 72 h.
For the molecule `[2H]C([2H])(CCc1nnc(NC(=O)Cc2ccccn2)s1)C([2H])([2H])c1ccc(NC(=O)Cc2cccc(OC(F)(F)F)c2)nn1` [Compound 727], the half-maximal inhibitory concentration (IC50) came to 12 nM.
